Laboratory results published in patent publication US20240158446A1, “CYCLIC COMPOUND HAVING SELECTIVE INHIBITORY ACTION ON KRAS OVER HRAS AND NRAS” (CHUGAI SEIYAKU KABUSHIKI KAISHA, priority 2021, published 2024).
Like-named read-outs stand apart in the source and are kept apart here. Values belong to the compound of their own block, whether it stands above or below them. *1 amine or outer side, *2 acyl side, *3 side chain or, on linkers, in order; H or OH if unused. Where a SMILES comes first, the peptide text is derived from it. Bridges are numbered along the chain shown (N, C = ends). [ ]: non-standard residue; d: D form. The star is where a group is joined. hPhe(3-Cl-4-CF3) = N[C@@H](CCc1ccc(C(F)(F)F)c(Cl)c1)C(=O)O; X40 = CC(C)CN([C@@H](Cc1ccc(C(F)(F)F)cc1)C(=O)[*:2])[*:1]; NPrPhe(4-CF3) = CCCN[C@@H](Cc1ccc(C(F)(F)F)cc1)C(=O)O; NEtPhe(4-Me) = CCN[C@@H](Cc1ccc(C)cc1)C(=O)O; NMeGly(cPent) = CN[C@H](C(=O)O)C1CCCC1; NEtPhe = CCN[C@@H](Cc1ccccc1)C(=O)O; cisHyp = O=C(O)[C@@H]1C[C@H](O)CN1; Hyp = O=C(O)[C@@H]1C[C@@H](O)CN1; NMeD = CN[C@@H](CC(=O)O)C(=O)O; NMeL = CN[C@@H](CC(C)C)C(=O)O; Morpholide = C1CN(*)CCO1; NMeA = CN[C@@H](C)C(=O)O; Ac5c = NC1(C(=O)O)CCCC1; Aze = O=C(O)[C@@H]1CCN1; Sar = CNCC(=O)O

Legend:
[1] = target: GDP-bound HRAS wild-type protein (Homo sapiens, UniProt P01112); assay: Binding to HRAS by surface plasmon resonance (SPR), Single Cycle Kinetics; details: for HRAS/KRAS (ratio of KD value for HRAS to KD value for KRAS): SPR, GDP-bound HRAS wild-type protein vs GDP-bound KRAS wild-type protein; for HRAS/KRAS (ratio of KD value with respect to GDP-bound HRAS wild-type protein to KD value with respect to KRAS): SPR KD ratio HRAS/KRAS, class symbols
[2] = target: GDP-bound KRAS wild-type protein (Homo sapiens, UniProt P01116); assay: Binding to KRAS by surface plasmon resonance (SPR), Single Cycle Kinetics; details: GDP-bound KRAS wild-type protein, read-out: KRAS KD
[3] = target: GDP-bound NRAS wild-type protein (Homo sapiens, UniProt P01111); assay: Binding to NRAS by surface plasmon resonance (SPR), Single Cycle Kinetics; details: for NRAS/KRAS (ratio of KD value for NRAS to KD value for KRAS): SPR, GDP-bound NRAS wild-type protein vs GDP-bound KRAS wild-type protein; for NRAS/KRAS (ratio of KD value with respect to GDP-bound NRAS wild-type protein to KD value with respect to KRAS): SPR KD ratio NRAS/KRAS, class symbols
[4] = SPR Single Cycle Kinetics, 1:1 binding model

GDP-bound NRAS wild-type protein, sequence (P01111 whole entry): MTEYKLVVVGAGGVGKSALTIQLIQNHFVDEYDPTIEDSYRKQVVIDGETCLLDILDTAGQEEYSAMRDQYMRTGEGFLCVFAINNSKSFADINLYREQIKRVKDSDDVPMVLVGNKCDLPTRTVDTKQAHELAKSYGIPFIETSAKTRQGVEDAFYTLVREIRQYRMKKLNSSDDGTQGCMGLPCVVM
GDP-bound HRAS wild-type protein, sequence (P01112 whole entry): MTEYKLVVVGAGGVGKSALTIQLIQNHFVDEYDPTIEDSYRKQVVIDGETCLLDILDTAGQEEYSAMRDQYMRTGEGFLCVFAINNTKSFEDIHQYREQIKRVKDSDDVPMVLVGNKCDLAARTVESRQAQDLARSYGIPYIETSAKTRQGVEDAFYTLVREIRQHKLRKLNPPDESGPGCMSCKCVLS
GDP-bound KRAS wild-type protein, sequence (P01116 whole entry): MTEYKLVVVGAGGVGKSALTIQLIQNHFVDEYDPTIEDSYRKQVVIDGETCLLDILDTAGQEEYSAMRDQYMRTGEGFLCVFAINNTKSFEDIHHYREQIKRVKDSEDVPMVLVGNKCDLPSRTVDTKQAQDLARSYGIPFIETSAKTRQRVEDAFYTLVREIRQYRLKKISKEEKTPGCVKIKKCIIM

Kd [2, 4]: 0.035 nM
SMILES: CCCN1C(=O)CN(C)C(=O)CN(C)C(=O)[C@H]([C@@H](C)CC)NC(=O)[C@H](CC(C)C)N(C)C(=O)C[C@@H](C(=O)N(C)C)N(C)C(=O)[C@H](C2CCCC2)N(C)C(=O)C2(CCCC2)NC(=O)[C@@H]2CCCN2C(=O)[C@H](CCc2ccc(C(F)(F)F)c(Cl)c2)NC(=O)CN(C)C(=O)[C@@H]1Cc1ccc(C(F)(F)F)cc1 [PP0169] ([NMeL]I[Sar][Sar][NPrPhe(4-CF3)][Sar][hPhe(3-Cl-4-CF3)]P[Ac5c][NMeGly(cPent)][NMeD]-NMe2; lactam N-11)
HRAS/KRAS (ratio of KD value for HRAS to KD value for KRAS) [1]: B (a compound having 3 or more and less than 10 is denoted as B)
NRAS/KRAS (ratio of KD value for NRAS to KD value for KRAS) [3]: B (a compound having 3 or more and less than 10 is denoted as B)

Kd ([2]; SPR, Single Cycle Kinetics): 0.56 nM
SMILES: CCCO[C@@H]1C[C@H]2C(=O)NC3(CC(C)(C)C3)C(=O)N(C)[C@@H](C(CC)CC)C(=O)N(C)[C@H](C(=O)N(C)C)CC(=O)N(C)[C@H]3CCCc4ccc(cc4)C[C@@H](C(=O)N(C)CC(=O)N[C@@H](CCc4ccc(C(F)(F)F)c(OC)c4)C(=O)N2C1)N1CC/C=C\C[C@@H](C1=O)N(C)C(=O)CN(C)C(=O)[C@H]([C@@H](C)CC)NC3=O [PP3063]
HRAS/KRAS (ratio of KD value for HRAS to KD value for KRAS) [1]: B (a compound having 3 or more and less than 10 is denoted as B)
NRAS/KRAS (ratio of KD value for NRAS to KD value for KRAS) [3]: B (a compound having 3 or more and less than 10 is denoted as B)

Kd ([2]; SPR, Single Cycle Kinetics): 0.12 nM
SMILES: CCC[C@H]1C(=O)N[C@@H]([C@@H](C)CC)C(=O)N(C)CC(=O)N(C)[C@H]2C/C=C\CCN(C2=O)[C@@H](Cc2ccc(C)cc2)C(=O)N(C)CC(=O)N[C@@H](CCc2cc(F)c(C(F)(F)F)c(F)c2)C(=O)N2CC3(CC3)C[C@H]2C(=O)NC2(CC(C)(C)C2)C(=O)N(C)[C@@H](CC(C)(C)C)C(=O)N(C)[C@H](C(=O)N(C)C)CC(=O)N1C [PP2997]
HRAS/KRAS (ratio of KD value for HRAS to KD value for KRAS) [1]: B (a compound having 3 or more and less than 10 is denoted as B)
NRAS/KRAS (ratio of KD value for NRAS to KD value for KRAS) [3]: A (a compound having 10 or more and less than 20 is denoted as A)

Kd [2, 4]: 0.31 nM
SMILES: CCCN1C(=O)CN(C)C(=O)CN(C)C(=O)[C@H]([C@@H](C)CC)NC(=O)[C@H](CC(C)C)N(C)C(=O)C[C@@H](C(=O)N2CCOCC2)N(C)C(=O)[C@H](C2CCCC2)N(C)C(=O)C2(CCCC2)NC(=O)[C@@H]2C[C@H](OCC)CN2C(=O)[C@H](CCc2ccc(C(F)(F)F)c(Cl)c2)NC(=O)CN(C)C(=O)[C@@H]1Cc1ccc(C(F)(F)F)cc1 [PP0243] ([NMeL]I[Sar][Sar][NPrPhe(4-CF3)][Sar][hPhe(3-Cl-4-CF3)][cisHyp](Et)[Ac5c][NMeGly(cPent)][NMeD]-Morpholide; lactam N-11)
HRAS/KRAS (ratio of KD value for HRAS to KD value for KRAS) [1]: C (A compound having a KD ratio of 0.1 or more and less than 3 is denoted as C)
NRAS/KRAS (ratio of KD value for NRAS to KD value for KRAS) [3]: B (a compound having 3 or more and less than 10 is denoted as B)

Kd [2, 4]: 0.052 nM
SMILES: CCCN1C(=O)CN(C)C(=O)CN(C)C(=O)[C@H]([C@@H](C)CC)NC(=O)[C@H](CC(C)C)N(C)C(=O)C[C@@H](C(=O)N2CCOCC2)N(C)C(=O)[C@H](C2CCCC2)N(C)C(=O)C2(CCCC2)NC(=O)[C@@H]2C[C@@H](OCC)CN2C(=O)[C@H](CCc2ccc(C(F)(F)F)c(Cl)c2)NC(=O)CN(C)C(=O)[C@@H]1Cc1ccc(C(F)(F)F)cc1 [PP0233] ([NMeL]I[Sar][Sar][NPrPhe(4-CF3)][Sar][hPhe(3-Cl-4-CF3)][Hyp](Et)[Ac5c][NMeGly(cPent)][NMeD]-Morpholide; lactam N-11)
HRAS/KRAS (ratio of KD value for HRAS to KD value for KRAS) [1]: C (A compound having a KD ratio of 0.1 or more and less than 3 is denoted as C)
NRAS/KRAS (ratio of KD value for NRAS to KD value for KRAS) [3]: B (a compound having 3 or more and less than 10 is denoted as B)

Continued, compound first:

SMILES: CC[C@H](C)[C@@H]1NC(=O)[C@H](CC(C)C)N(C)C(=O)C[C@@H](C(=O)N2CCOCC2)N(C)C(=O)[C@H](C2CCCC2)N(C)C(=O)C2(CCCC2)NC(=O)[C@@H]2CCCN2C(=O)[C@H](CCc2ccc(C(F)(F)F)c(Cl)c2)NC(=O)CN(C)C(=O)[C@H](Cc2ccc(C(F)(F)F)cc2)N(CC(C)C)C(=O)[C@@H]2CCN2C(=O)[C@H](C)N(C)C1=O [PP0107] ([NMeL]I[NMeA][Aze][X40][Sar][hPhe(3-Cl-4-CF3)]P[Ac5c][NMeGly(cPent)][NMeD]-Morpholide; lactam N-11)
HRAS/KRAS (ratio of KD value for HRAS to KD value for KRAS) [1]: C (A compound having a KD ratio of 0.1 or more and less than 3 is denoted as C)
Kd [2, 4]: 1.7 nM
NRAS/KRAS (ratio of KD value for NRAS to KD value for KRAS) [3]: C (A compound having a KD ratio of 0.1 or more and less than 3 is denoted as C)

SMILES: CCCN1C(=O)[C@@H]2CCN2C(=O)[C@H](C)N(C)C(=O)[C@H]([C@@H](C)CC)NC(=O)[C@H](CC(C)C)N(C)C(=O)C[C@@H](C(=O)N2CCOCC2)N(C)C(=O)[C@H](C2CCCC2)N(C)C(=O)C2(CCCC2)NC(=O)[C@@H]2C[C@@H](O)CN2C(=O)[C@H](CCc2ccc(C(F)(F)F)c(Cl)c2)NC(=O)CN(C)C(=O)[C@@H]1Cc1ccc(C(F)(F)F)cc1 [PP0239]
HRAS/KRAS (ratio of KD value for HRAS to KD value for KRAS) [1]: B (a compound having 3 or more and less than 10 is denoted as B)
Kd [2, 4]: 0.05 nM
NRAS/KRAS (ratio of KD value for NRAS to KD value for KRAS) [3]: C (A compound having a KD ratio of 0.1 or more and less than 3 is denoted as C)

SMILES: CCO[C@@H]1C[C@H]2C(=O)NC3(CCC3)C(=O)N(C)[C@@H](C3CCCC3)C(=O)N(C)[C@H](C(=O)N(C)C)CC(=O)N(C)[C@@H](CC3CCCC3)C(=O)N[C@@H]([C@@H](C)CC)C(=O)N(C)CC(=O)N(C)[C@H]3C/C=C\CCN(C3=O)[C@@H](Cc3ccc(C)cc3)C(=O)N(C)CC(=O)N[C@@H](CCc3ccc(Cl)c(Cl)c3)C(=O)N2C1 [PP1487]
HRAS/KRAS (ratio of KD value for HRAS to KD value for KRAS) ([1]; KD ratio class): A (a compound having 10 or more and less than 20 is denoted as A)
Kd ([2]; SPR, Single Cycle Kinetics, 1:1 binding model): 0.34 nM
NRAS/KRAS (ratio of KD value for NRAS to KD value for KRAS) ([3]; KD ratio class): A (a compound having 10 or more and less than 20 is denoted as A)

SMILES: CCO[C@@H]1C[C@H]2C(=O)NC3(CCC3)C(=O)N(C)[C@@H](C3CCCC3)C(=O)N(C)[C@H](C(=O)N(C)C)CC(=O)N(C)[C@@H](CC3CCCC3)C(=O)N[C@@H]([C@@H](C)CC)C(=O)N(C)CC(=O)N(C)[C@H]3C/C=C\CCN(C3=O)[C@@H](Cc3ccc(C(F)(F)F)cc3)C(=O)N(C)CC(=O)N[C@@H](CCc3ccc(C(F)(F)F)c(Cl)c3)C(=O)N2C1 [PP2842]
HRAS/KRAS (ratio of KD value with respect to GDP-bound HRAS wild-type protein to KD value with respect to KRAS) [1]: B (a compound having 3 or more and less than 10 is denoted as B)
Kd [2, 4]: 0.08 nM
NRAS/KRAS (ratio of KD value with respect to GDP-bound NRAS wild-type protein to KD value with respect to KRAS) [3]: A (a compound having 10 or more and less than 20 is denoted as A)

SMILES: CCO[C@@H]1C[C@H]2C(=O)NC3(CCCC3)C(=O)N(C)[C@@H](C3CCCC3)C(=O)N(C)[C@H](C(=O)N3CCOCC3)CC(=O)N(C)[C@@H](CC(C)C)C(=O)N[C@@H]([C@@H](C)CC)C(=O)N(C)[C@@H](C)C(=O)N3CC[C@H]3C(=O)N(CC)[C@@H](Cc3ccc(C)cc3)C(=O)N(C)CC(=O)N[C@@H](CCc3ccc(C(F)(F)F)c(Cl)c3)C(=O)N2C1 [PP0014] ([NMeL]I[NMeA][Aze][NEtPhe(4-Me)][Sar][hPhe(3-Cl-4-CF3)][Hyp](Et)[Ac5c][NMeGly(cPent)][NMeD]-Morpholide; lactam N-11)
HRAS/KRAS (ratio of KD value for HRAS to KD value for KRAS) [1]: C (A compound having a KD ratio of 0.1 or more and less than 3 is denoted as C)
Kd [2, 4]: 0.09 nM
NRAS/KRAS (ratio of KD value for NRAS to KD value for KRAS) [3]: C (A compound having a KD ratio of 0.1 or more and less than 3 is denoted as C)

SMILES: CC[C@H](C)[C@@H]1NC(=O)[C@H](CC(C)C)N(C)C(=O)C[C@@H](C(=O)N2CCOCC2)N(C)C(=O)[C@H](C2CCCC2)N(C)C(=O)C2(CCCC2)NC(=O)[C@@H]2CCCN2C(=O)[C@H](CCc2ccc(C(F)(F)F)c(Cl)c2)NC(=O)CN(C)C(=O)[C@H](Cc2ccccc2)N(CC)C(=O)[C@@H]2CCN2C(=O)[C@H](C)N(C)C1=O [PP0215] ([NMeL]I[NMeA][Aze][NEtPhe][Sar][hPhe(3-Cl-4-CF3)]P[Ac5c][NMeGly(cPent)][NMeD]-Morpholide; lactam N-11)
HRAS/KRAS (ratio of KD value for HRAS to KD value for KRAS) [1]: C (A compound having a KD ratio of 0.1 or more and less than 3 is denoted as C)
Kd [2, 4]: 0.41 nM
NRAS/KRAS (ratio of KD value for NRAS to KD value for KRAS) [3]: C (A compound having a KD ratio of 0.1 or more and less than 3 is denoted as C)

SMILES: CCC[C@H]1C(=O)N[C@@H]([C@@H](C)CC)C(=O)N(C)CC(=O)N(C)[C@H]2C/C=C\CCN(C2=O)[C@@H](Cc2ccc(C)cc2)C(=O)N(C)CC(=O)N[C@@H](CCc2ccc3sc(C)c(C)c3c2)C(=O)N2C[C@H](OCC)C[C@H]2C(=O)NC2(CC(C)(C)C2)C(=O)N(C)[C@@H](C(CC)CC)C(=O)N(C)[C@H](C(=O)N(C)C)CC(=O)N1C [PP2902]
HRAS/KRAS (ratio of KD value with respect to GDP-bound HRAS wild-type protein to KD value with respect to KRAS) [1]: A (a compound having 10 or more and less than 20 is denoted as A)
Kd [2, 4]: 0.71 nM
NRAS/KRAS (ratio of KD value with respect to GDP-bound NRAS wild-type protein to KD value with respect to KRAS) [3]: AA (a compound having 20 or more is denoted as AA)
